Test results taken from BindingDB's records for doi:10.7270/Q2V40SP7 (The Scripps Research Institute Molecular Screening Center, 2011).
pIC50: −log10 of the molar value.

Target: T1, Peroxisome proliferator-activated receptor gamma (Homo sapiens, UniProt P37231)
T1 sequence (P37231 whole entry): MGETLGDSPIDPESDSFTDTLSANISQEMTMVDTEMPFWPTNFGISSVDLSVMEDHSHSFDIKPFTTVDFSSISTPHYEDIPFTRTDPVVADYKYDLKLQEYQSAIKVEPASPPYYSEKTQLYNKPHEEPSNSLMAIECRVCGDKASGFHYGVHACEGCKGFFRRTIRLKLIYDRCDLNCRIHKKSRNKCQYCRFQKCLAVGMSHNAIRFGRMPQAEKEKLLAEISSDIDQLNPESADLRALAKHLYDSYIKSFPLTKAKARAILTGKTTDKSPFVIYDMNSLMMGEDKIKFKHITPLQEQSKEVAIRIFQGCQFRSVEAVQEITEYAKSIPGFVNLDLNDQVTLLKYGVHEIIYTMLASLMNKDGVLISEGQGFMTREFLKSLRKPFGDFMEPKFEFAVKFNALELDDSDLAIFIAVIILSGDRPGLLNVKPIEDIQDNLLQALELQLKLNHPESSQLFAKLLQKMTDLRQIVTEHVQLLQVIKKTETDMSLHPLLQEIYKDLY
Experiment: competitive ligand displacement at PPARg – biochemical, TR-FRET, LanthaScreen, PPARg partial agonist project, dose response (AID 504446)

pIC50 | SMILES
4.85 | Cc1ccc2nc(N3C(=O)C(=O)C(C(=O)c4ccco4)C3c3ccc(C)o3)sc2c1 (centres undefined) [3-[2-furanyl(oxo)methyl]-4-hydroxy-1-(6-methyl-1,3-benzothiazol-2-yl)-2-(5-methyl-2-furanyl)-2H-pyrrol-5-one;oxalic acid]
5.09 | CCOc1ccc2nc(N3C(=O)C(=O)C(C(=O)c4ccco4)C3c3ccco3)sc2c1 (centres undefined) [1-(6-ethoxy-1,3-benzothiazol-2-yl)-2-(2-furanyl)-3-[2-furanyl(oxo)methyl]-4-hydroxy-2H-pyrrol-5-one]
5.92 | COc1ccc2nc(N3C(=O)C(=O)C(C(=O)c4ccco4)C3c3ccc(C)o3)sc2c1 (centres undefined)
5.59 | Cc1ccc2nc(N3C(=O)C(=O)C(C(=O)c4ccc(C)o4)C3c3ccco3)sc2c1 (centres undefined)
